System: HIV
Assay: MT4 assay: antiviral HIV activity (cell protection, cell titer glo readout at 96 hours)
Type: cell-based
Details: Human immunodeficiency virus 1, MT4, 96 h, MT4 cells, cell titer glo readout at 96 hours, 10 point dose response; read-out: HIV MT4 Assay IC50
Procedure, shortened: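 MT-4 cells infected with HIV, with inhibition readout by CellTiter-Glo luminescence at 96 h relative to no-compound control. Cytotoxicity measured in parallel under the same conditions. IC50 from a 10-point, 3-4-fold dilution series spanning >1000-fold, fitted with a four-parameter logistic equation.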

Row | Compound | IC50
1 | Cc1nc2c(cc(-c3nnc(N4CCN(C5CCOCC5)[C@H](C)C4)o3)n2C)c(-c2cc(F)c3c(c2C)CCCO3)c1[C@H](OC(C)(C)C)C(=O)O [Example 347] | 6.3 nM
2 | Cc1nc2c(cc(-c3nnc(N4CCN5CCC[C@H]5C4)o3)n2C)c(-c2cc(F)c3c(c2C)CCCO3)c1[C@H](OC(C)(C)C)C(=O)O [Example 348] | 3.1 nM
3 | Cc1nc2c(cc(-c3nnc(N4C[C@H](C)O[C@@H](C)C4)o3)n2C)c(-c2cc(F)c3c(c2C)CCCO3)c1[C@H](OC(C)(C)C)C(=O)O [Example 351] | 2 nM
4 | Cc1nc2c(cc(-c3nnc(N4CCOC(C)(C)C4)o3)n2C)c(-c2cc(F)c3c(c2C)CCCO3)c1[C@H](OC(C)(C)C)C(=O)O [Example 352] | 5.5 nM
5 | Cc1nc2c(cc(-c3cc(N4CCN(C5CCOCC5)CC4)ncn3)n2C)c(-c2cc(F)c3c(c2C)CCCO3)c1[C@H](OC(C)(C)C)C(=O)O [Example 359] | 4.1 nM
6 | Cc1nc2c(cc(-c3cncc(N4CCN(C5CCOCC5)CC4)n3)n2C)c(-c2cc(F)c3c(c2C)CCCO3)c1[C@H](OC(C)(C)C)C(=O)O [Example 360] | 30.8 nM
7 | Cc1nc2c(cc(-c3cncc(N4CCN(C5CCOCC5)CC4)c3)n2C)c(-c2cc(F)c3c(c2C)CCCO3)c1[C@H](OC(C)(C)C)C(=O)O [Example 361] | 14.7 nM
8 | Cc1nc2c(cc(-c3ccnc(N4CCN(C5CCOCC5)CC4)n3)n2C)c(-c2cc(F)c3c(c2C)CCCO3)c1[C@H](OC(C)(C)C)C(=O)O [Example 363] | 9.9 nM
9 | Cc1nc2c(cc(-c3cc(NCCN4CCOCC4)ncn3)n2C)c(-c2cc(F)c3c(c2C)CCCO3)c1[C@H](OC(C)(C)C)C(=O)O [Example 365] | 86.7 nM
10 | Cc1nc2c(cc(-c3cc(NCCC(C)(C)C)ncn3)n2C)c(-c2cc(F)c3c(c2C)CCCO3)c1[C@H](OC(C)(C)C)C(=O)O [Example 366] | 15.2 nM
11 | Cc1nc2c(cc(-c3nsc(N4CCNCC4)n3)n2C)c(-c2cc(F)c3c(c2C)CCCO3)c1[C@H](OC(C)(C)C)C(=O)O [Example 367] | 17.5 nM
12 | Cc1nc2c(cc(-c3nc(N4CCCCC4)ns3)n2C)c(-c2cc(F)c3c(c2C)CCCO3)c1[C@H](OC(C)(C)C)C(=O)O [Example 368] | 39.5 nM
13 | Cc1nc2c(cc(-c3nsc(N4CCN(C)CC4)n3)n2C)c(-c2cc(F)c3c(c2C)CCCO3)c1[C@H](OC(C)(C)C)C(=O)O [Example 371] | 8.4 nM
14 | Cc1nc2c(cc(-c3nc(N4CCC(C)CC4)ns3)n2C)c(-c2cc(F)c3c(c2C)CCCO3)c1[C@H](OC(C)(C)C)C(=O)O [Example 372] | 36.2 nM
15 | Cc1nc2c(cc(-c3nsc(N4CCN(C5CC5)CC4)n3)n2C)c(-c2cc(F)c3c(c2C)CCCO3)c1[C@H](OC(C)(C)C)C(=O)O [Example 373] | 5.2 nM
16 | Cc1nc2c(cc(-c3nsc(N4CCN(C5CCOCC5)CC4)n3)n2C)c(-c2cc(F)c3c(c2C)CCCO3)c1[C@H](OC(C)(C)C)C(=O)O [Example 375] | 1.5 nM
17 | Cc1nc2c(cc(-c3nc(N4CCC5(CC4)OCCO5)ns3)n2C)c(-c2cc(F)c3c(c2C)CCCO3)c1[C@H](OC(C)(C)C)C(=O)O [Example 377] | 5.9 nM
18 | Cc1nc2c(cc(-c3nc(N4CCC(N5CCOCC5)CC4)ns3)n2C)c(-c2cc(F)c3c(c2C)CCCO3)c1[C@H](OC(C)(C)C)C(=O)O [Example 380] | 1.6 nM
19 | Cc1nc2c(cc(-c3nc(N4CCN(C(=O)N5CCCCC5)CC4)ns3)n2C)c(-c2cc(F)c3c(c2C)CCCO3)c1[C@H](OC(C)(C)C)C(=O)O [Example 384] | 5.1 nM
20 | Cc1nc2c(cc(-c3nc(N4CCN(C(=O)N5CCOCC5)CC4)ns3)n2C)c(-c2cc(F)c3c(c2C)CCCO3)c1[C@H](OC(C)(C)C)C(=O)O [Example 388] | 9.3 nM
21 | Cc1nc2c(cc(-c3nc(N4CCC(N5CCN(C)CC5)CC4)ns3)n2C)c(-c2cc(F)c3c(c2C)CCCO3)c1[C@H](OC(C)(C)C)C(=O)O [Example 389] | 5.6 nM
22 | Cc1nc2c(cc(-c3nc(N4CCN(CC5CCOCC5)CC4)ns3)n2C)c(-c2cc(F)c3c(c2C)CCCO3)c1[C@H](OC(C)(C)C)C(=O)O [Example 390] | 5.4 nM
23 | Cc1nc2c(cc(-c3nc(N4CCN(C(=O)C5CCOCC5)CC4)ns3)n2C)c(-c2cc(F)c3c(c2C)CCCO3)c1[C@H](OC(C)(C)C)C(=O)O [Example 391] | 14.2 nM
24 | COC1CCN(c2nsc(-c3cc4c(-c5cc(F)c6c(c5C)CCCO6)c([C@H](OC(C)(C)C)C(=O)O)c(C)nc4n3C)n2)CC1 [Example 395] | 13.1 nM
25 | Cc1nc2c(cc(-c3nc(N4CCC(N(C)C)CC4)ns3)n2C)c(-c2cc(F)c3c(c2C)CCCO3)c1[C@H](OC(C)(C)C)C(=O)O [Example 396] | 15.5 nM
26 | Cc1nc2c(cc(-c3nc(N4CCCN(C)CC4)ns3)n2C)c(-c2cc(F)c3c(c2C)CCCO3)c1[C@H](OC(C)(C)C)C(=O)O [Example 398] | 13.6 nM
27 | Cc1nc2c(cc(-c3nc(N4CCN(C(C)C)CC4)ns3)n2C)c(-c2cc(F)c3c(c2C)CCCO3)c1[C@H](OC(C)(C)C)C(=O)O [Example 400] | 6.3 nM
28 | Cc1nc2c(cc(-c3nc(N4CCC(N5CCCC5)CC4)ns3)n2C)c(-c2cc(F)c3c(c2C)CCCO3)c1[C@H](OC(C)(C)C)C(=O)O [Example 402] | 15 nM
29 | Cc1nc2c(cc(-c3nc(N4CCC4)ns3)n2C)c(-c2cc(F)c3c(c2C)CCCO3)c1[C@H](OC(C)(C)C)C(=O)O [Example 403] | 12.9 nM
30 | Cc1nc2c(cc(-c3nc(NC4CCOCC4)ns3)n2C)c(-c2cc(F)c3c(c2C)CCCO3)c1[C@H](OC(C)(C)C)C(=O)O [Example 407] | 25.4 nM

Results, then the compound that gave them:

Row | IC50 | Compound
31 | 2.7 nM | Cc1nc2c(cc(-c3nnc(N4CCC(F)CC4)o3)n2C)c(-c2cc(F)c3c(c2C)CCCO3)c1[C@H](OC(C)(C)C)C(=O)O [Example 346]
32 | 3 nM | COC[C@@H]1CCCN1c1nnc(-c2cc3c(-c4cc(F)c5c(c4C)CCCO5)c([C@H](OC(C)(C)C)C(=O)O)c(C)nc3n2C)o1 [Example 349]
33 | 11.9 nM | Cc1nc2c(cc(-c3nnc(N4CCCOCC4)o3)n2C)c(-c2cc(F)c3c(c2C)CCCO3)c1[C@H](OC(C)(C)C)C(=O)O [Example 350]
34 | 7 nM | Cc1nc2c(cc(-c3nnc(N4CC5CCC(C4)O5)o3)n2C)c(-c2cc(F)c3c(c2C)CCCO3)c1[C@H](OC(C)(C)C)C(=O)O [Example 353]
35 | 5.8 nM | Cc1nc2c(cc(-c3cc(N4CCN(C5CCOCC5)CC4)ccn3)n2C)c(-c2cc(F)c3c(c2C)CCCO3)c1[C@H](OC(C)(C)C)C(=O)O [Example 362]
36 | 11.3 nM | Cc1nc2c(cc(-c3nc(N4CCN(C)CC4)ns3)n2C)c(-c2cc(F)c3c(c2C)CCCO3)c1[C@H](OC(C)(C)C)C(=O)O [Example 369]
37 | 9.5 nM | Cc1nc2c(cc(-c3nsc(N4CCCCC4)n3)n2C)c(-c2cc(F)c3c(c2C)CCCO3)c1[C@H](OC(C)(C)C)C(=O)O [Example 370]
38 | 10.8 nM | Cc1nc2c(cc(-c3nsc(N4CCC(C)CC4)n3)n2C)c(-c2cc(F)c3c(c2C)CCCO3)c1[C@H](OC(C)(C)C)C(=O)O [Example 374]
39 | 14.4 nM | Cc1nc2c(cc(-c3nnc(N4CCN(C5CCOCC5)CC4)s3)n2C)c(-c2cc(F)c3c(c2C)CCCO3)c1[C@H](OC(C)(C)C)C(=O)O [Example 376]
40 | 4.1 nM | Cc1nc2c(cc(-c3nc(N4CCN(C5CCOCC5)C[C@H]4C)ns3)n2C)c(-c2cc(F)c3c(c2C)CCCO3)c1[C@H](OC(C)(C)C)C(=O)O [Example 378]
41 | 2.7 nM | Cc1nc2c(cc(-c3nc(N4CCN5CCC[C@@H]5C4)ns3)n2C)c(-c2cc(F)c3c(c2C)CCCO3)c1[C@H](OC(C)(C)C)C(=O)O [Example 381]
42 | 4.1 nM | Cc1nc2c(cc(-c3nc(N4CCN5CCC[C@H]5C4)ns3)n2C)c(-c2cc(F)c3c(c2C)CCCO3)c1[C@H](OC(C)(C)C)C(=O)O [Example 383]
43 | 10 nM | Cc1nc2c(cc(-c3nc(N4CCN(C5CC5)CC4)ns3)n2C)c(-c2cc(F)c3c(c2C)CCCO3)c1[C@H](OC(C)(C)C)C(=O)O [Example 385]
44 | 5.9 nM | Cc1nc2c(cc(-c3nc(N4CCN(CC5CC5)CC4)ns3)n2C)c(-c2cc(F)c3c(c2C)CCCO3)c1[C@H](OC(C)(C)C)C(=O)O [Example 386]
45 | 6.9 nM | Cc1nc2c(cc(-c3nc(N4CCC(N5CCCCC5)CC4)ns3)n2C)c(-c2cc(F)c3c(c2C)CCCO3)c1[C@H](OC(C)(C)C)C(=O)O [Example 387]
46 | 4.9 nM | Cc1nc2c(cc(-c3nc(N4CCN(S(=O)(=O)N5CCOCC5)CC4)ns3)n2C)c(-c2cc(F)c3c(c2C)CCCO3)c1[C@H](OC(C)(C)C)C(=O)O [Example 392]
47 | 4.2 nM | Cc1nc2c(cc(-c3nc(N4CCN(S(=O)(=O)C5CCOCC5)CC4)ns3)n2C)c(-c2cc(F)c3c(c2C)CCCO3)c1[C@H](OC(C)(C)C)C(=O)O [Example 393]
48 | 16.4 nM | Cc1nc2c(cc(-c3nc(N4CCN(S(=O)(=O)N5CCCCC5)CC4)ns3)n2C)c(-c2cc(F)c3c(c2C)CCCO3)c1[C@H](OC(C)(C)C)C(=O)O [Example 394]
49 | 28.7 nM | Cc1nc2c(cc(-c3nc(N4CCC(F)CC4)ns3)n2C)c(-c2cc(F)c3c(c2C)CCCO3)c1[C@H](OC(C)(C)C)C(=O)O [Example 399]
50 | 12.8 nM | Cc1nc2c(cc(-c3nc(N4CC[C@@H](N(C)C)C4)ns3)n2C)c(-c2cc(F)c3c(c2C)CCCO3)c1[C@H](OC(C)(C)C)C(=O)O [Example 401]
51 | 12.8 nM | COC[C@@H]1CCCN1c1nsc(-c2cc3c(-c4cc(F)c5c(c4C)CCCO5)c([C@H](OC(C)(C)C)C(=O)O)c(C)nc3n2C)n1 [Example 404]
52 | 2.7 nM | Cc1nc2c(cc(-c3nc(N4CCN(CCN5CCOCC5)CC4)ns3)n2C)c(-c2cc(F)c3c(c2C)CCCO3)c1[C@H](OC(C)(C)C)C(=O)O [Example 405]
53 | 39.2 nM | Cc1nc2c(cc(-c3nc(NCCS(C)(=O)=O)ns3)n2C)c(-c2cc(F)c3c(c2C)CCCO3)c1[C@H](OC(C)(C)C)C(=O)O [Example 406]

Same assay, conditions: MT4 cells, cell titer glo readout at 96 hours, 10 point dose response; read-out: HIV MT4 Assay IC50

Row | IC50 | Compound
54 | 208 nM | Cc1nc2c(cc(-c3nc(N4CCN(C5CCOCC5)CC4)ns3)n2C)c(-c2cc(F)c3c(c2C)CCCO3)c1[C@H](OC(C)(C)C)C(=O)O [Example 379]
